# Test results as given in ChEMBL document CHEMBL4311942, “Design of Trp-Rich Dodecapeptides with Broad-Spectrum Antimicrobial Potency and Membrane-Disruptive Mechanism” (J Med Chem, 2019).
# Where a SMILES comes first, the peptide text is derived from it.
# Key:
# Escherichia coli [1] = assay: Antibacterial activity against Escherichia coli ATCC 25922 incubated for 18 to 24 hrs by broth microdilution method; format: functional
# [2] = Therapeutic index, ratio of MHC for human RBC to geometric mean of peptide MIC for Escherichia coli ATCC 25922; format: toxicity; settings: pooled result: one value given for 6 cell lines, strains, targets or settings, read-out: TI
# Staphylococcus aureus [3] = assay: Antibacterial activity against Staphylococcus aureus ATCC 29213 incubated for 18 to 24 hrs by broth microdilution method; format: functional
# Salmonella typhimurium = assay: Antibacterial activity against Salmonella enterica serovar typhimurium C77-31 incubated for 18 to 24 hrs by broth microdilution method; format: functional, Salmonella enterica subsp. enterica serovar Typhimurium
# [4] = system: Staphylococcus epidermidis; assay: Antibacterial activity against Staphylococcus epidermidis ATCC 12228 incubated for 18 to 24 hrs by broth microdilution method; format: functional
# Escherichia coli [5] = assay: Antibacterial activity against Escherichia coli UB1005 incubated for 18 to 24 hrs by broth microdilution method; format: functional
# [6] = Cytotoxicity against mouse RAW264.7 cells assessed as cell survival at <= 32 uM after 24 hrs by MTT assay relative to control; format: cell-based; settings: RAW264.7 cells, up to 32 µM, read-out: Activity
# Erythrocyte = assay: Haemolytic activity in human erythrocytes assessed as lowest concentration causing 5% hemolysis after 1 hr; format: ADME, cell-based
# Staphylococcus aureus [7] = assay: Antibacterial activity against Staphylococcus aureus ATCC 25923 incubated for 18 to 24 hrs by broth microdilution method; format: functional
# Pseudomonas aeruginosa = assay: Antibacterial activity against Pseudomonas aeruginosa 25349 clinical isolate incubated for 18 to 24 hrs by broth microdilution method; format: functional
# Acinetobacter baumannii [8] = assay: Antibacterial activity against Acinetobacter baumannii AB1902 clinical isolate incubated for 18 to 24 hrs by broth microdilution method; format: functional
# Acinetobacter baumannii [9] = assay: Antibacterial activity against Acinetobacter baumannii AB1901 clinical isolate incubated for 18 to 24 hrs by broth microdilution method; format: functional
# Escherichia coli [10] = assay: Antibacterial activity against Escherichia coli 20411 clinical isolate incubated for 18 to 24 hrs by broth microdilution method; format: functional
# [11] = Cytotoxicity against mouse RAW264.7 cells assessed as cell survival at < 32 uM after 24 hrs by MTT assay; format: cell-based; settings: read-out: Activity
# Staphylococcus aureus [12] = assay: Antibacterial activity against Staphylococcus aureus 11011 incubated for 18 to 24 hrs by broth microdilution method; format: functional
compound,measurement,setting,value
CC(C)C[C@H](NC(=O)[C@H](CCCNC(=N)N)NC(=O)[C@H](CC(C)C)NC(=O)[C@H](CCCNC(=N)N)NC(=O)[C@@H](NC(=O)[C@H](CCCCN)NC(=O)[C@H](CC(C)C)NC(=O)[C@H](CCCNC(=N)N)NC(=O)[C@H](CC(C)C)NC(=O)[C@H](CCCNC(=N)N)NC(=O)[C@@H](N)CC(C)C)[C@@H](C)O)C(=O)N[C@@H](CCCCN)C(N)=O (H-LRLRLKTRLRLK-NH2),MIC,Escherichia coli [1],4 µM
same,selectivity ratio,[2],16
same,MIC,Staphylococcus aureus [3],32 µM
same,MIC,Salmonella typhimurium,16 µM
same,MIC,[4],64 µM
same,MIC,Escherichia coli [5],4 µM
same,viability at 24 h,[6],≥ 70%
same,MHC,Erythrocyte,> 128 µM
same,MIC,Staphylococcus aureus [7],32 µM
CC(C)C[C@H](NC(=O)[C@H](CCCNC(=N)N)NC(=O)[C@H](CCCCN)NC(=O)[C@H](Cc1c[nH]c2ccccc12)NC(=O)[C@@H](NC(=O)[C@H](CCCCN)NC(=O)[C@H](CCCCN)NC(=O)[C@H](CCCNC(=N)N)NC(=O)[C@H](CC(C)C)NC(=O)[C@H](CCCNC(=N)N)NC(=O)[C@@H](N)CCCNC(=N)N)[C@@H](C)O)C(=O)N[C@@H](Cc1c[nH]c2ccccc12)C(N)=O (H-RRLRKKTWKRLW-NH2),MIC,Escherichia coli [1],16 µM
same,selectivity ratio,[2],4.49
same,MIC,Staphylococcus aureus [3],64 µM
same,MIC,Salmonella typhimurium,64 µM
same,MIC,[4],64 µM
same,MIC,Escherichia coli [5],32 µM
same,viability at 24 h,[6],≥ 70%
same,MHC,Erythrocyte,> 128 µM
same,MIC,Staphylococcus aureus [7],> 128 µM
CC(C)C[C@H](NC(=O)[C@H](CCCNC(=N)N)NC(=O)[C@H](Cc1c[nH]c2ccccc12)NC(=O)[C@H](CCCNC(=N)N)NC(=O)[C@@H](NC(=O)[C@H](CCCCN)NC(=O)[C@H](Cc1c[nH]c2ccccc12)NC(=O)[C@H](CCCNC(=N)N)NC(=O)[C@H](CC(C)C)NC(=O)[C@H](CCCNC(=N)N)NC(=O)[C@@H](N)CCCNC(=N)N)[C@@H](C)O)C(=O)N[C@@H](CCCCN)C(N)=O (H-RRLRWKTRWRLK-NH2),MIC,Escherichia coli [1],16 µM
same,selectivity ratio,[2],18
same,MIC,Staphylococcus aureus [3],16 µM
same,MIC,Salmonella typhimurium,32 µM
same,MIC,[4],16 µM
same,MIC,Escherichia coli [5],4 µM
same,viability at 24 h,[6],≥ 70%
same,MHC,Erythrocyte,> 128 µM
same,MIC,Staphylococcus aureus [7],16 µM
CC(C)C[C@H](NC(=O)[C@H](CCCNC(=N)N)NC(=O)[C@H](Cc1c[nH]c2ccccc12)NC(=O)[C@H](CCCNC(=N)N)NC(=O)[C@@H](NC(=O)[C@H](Cc1c[nH]c2ccccc12)NC(=O)[C@H](Cc1c[nH]c2ccccc12)NC(=O)[C@H](CCCNC(=N)N)NC(=O)[C@H](CC(C)C)NC(=O)[C@H](CCCNC(=N)N)NC(=O)[C@@H](N)CCCNC(=N)N)[C@@H](C)O)C(=O)N[C@@H](CCCCN)C(N)=O (H-RRLRWWTRWRLK-NH2),MIC,Escherichia coli [1],4 µM
same,selectivity ratio,[2],45.2
same,MIC,Staphylococcus aureus [3],4 µM
same,MIC,Salmonella typhimurium,8 µM
same,MIC,[4],8 µM
same,MIC,Escherichia coli [5],4 µM
same,viability at 24 h,[6],≥ 70%
same,MHC,Erythrocyte,> 128 µM
same,MIC,Staphylococcus aureus [7],8 µM
CC(C)C[C@H](NC(=O)[C@H](CCCNC(=N)N)NC(=O)[C@H](Cc1c[nH]c2ccccc12)NC(=O)[C@H](CCCNC(=N)N)NC(=O)[C@@H](NC(=O)[C@H](CCCNC(=N)N)NC(=O)[C@H](Cc1c[nH]c2ccccc12)NC(=O)[C@H](CCCNC(=N)N)NC(=O)[C@H](CC(C)C)NC(=O)[C@H](CCCNC(=N)N)NC(=O)[C@@H](N)Cc1c[nH]c2ccccc12)[C@@H](C)O)C(=O)N[C@@H](CCCNC(=N)N)C(N)=O (H-WRLRWRTRWRLR-NH2),MIC,Escherichia coli [1],4 µM
same,MIC,Pseudomonas aeruginosa,16 µM
same,selectivity ratio,[2],90.5
same,MIC,Acinetobacter baumannii [8],4 µM
same,MIC,Staphylococcus aureus [3],2 µM
same,MIC,Salmonella typhimurium,4 µM
same,MIC,[4],2 µM
same,MIC,Escherichia coli [5],4 µM
same,MIC,Acinetobacter baumannii [9],4 µM
same,MHC,Erythrocyte,> 128 µM
same,MIC,Escherichia coli [10],2 µM
same,viability at 24 h,[11],> 90%
same,MIC,Staphylococcus aureus [7],2 µM
same,MIC,Staphylococcus aureus [12],2 µM
C[C@@H](O)[C@H](NC(=O)[C@H](CCCNC(=N)N)NC(=O)[C@H](Cc1c[nH]c2ccccc12)NC(=O)[C@H](CCCNC(=N)N)NC(=O)[C@@H](NC(=O)[C@H](CCCNC(=N)N)NC(=O)[C@H](Cc1c[nH]c2ccccc12)NC(=O)[C@H](CCCNC(=N)N)NC(=O)[C@@H](NC(=O)[C@H](CCCNC(=N)N)NC(=O)[C@@H](N)Cc1c[nH]c2ccccc12)[C@@H](C)O)[C@@H](C)O)C(=O)N[C@@H](CCCNC(=N)N)C(N)=O (H-WRTRWRTRWRTR-NH2),MIC,Escherichia coli [1],4 µM
same,MIC,Pseudomonas aeruginosa,> 64 µM
same,selectivity ratio,[2],50.8
same,MIC,Acinetobacter baumannii [8],32 µM
same,MIC,Staphylococcus aureus [3],4 µM
same,MIC,Salmonella typhimurium,4 µM
same,MIC,[4],8 µM
same,MIC,Escherichia coli [5],4 µM
same,MIC,Acinetobacter baumannii [9],32 µM
same,MHC,Erythrocyte,> 128 µM
same,MIC,Escherichia coli [10],2 µM
same,viability at 24 h,[11],> 90%
same,MIC,Staphylococcus aureus [7],8 µM
same,MIC,Staphylococcus aureus [12],4 µM
CC(C)[C@H](NC(=O)[C@H](CCCNC(=N)N)NC(=O)[C@H](Cc1c[nH]c2ccccc12)NC(=O)[C@H](CCCNC(=N)N)NC(=O)[C@@H](NC(=O)[C@H](CCCCN)NC(=O)[C@H](Cc1c[nH]c2ccccc12)NC(=O)[C@H](CCCNC(=N)N)NC(=O)[C@@H](NC(=O)[C@H](CCCNC(=N)N)NC(=O)[C@@H](N)Cc1c[nH]c2ccccc12)C(C)C)[C@@H](C)O)C(=O)N[C@@H](CCCCN)C(N)=O (H-WRVRWKTRWRVK-NH2),MIC,Escherichia coli [1],4 µM
same,MIC,Pseudomonas aeruginosa,32 µM
same,selectivity ratio,[2],80.8
same,MIC,Acinetobacter baumannii [8],8 µM
same,MIC,Staphylococcus aureus [3],2 µM
same,MIC,Salmonella typhimurium,4 µM
same,MIC,[4],4 µM
same,MIC,Escherichia coli [5],2 µM
same,MIC,Acinetobacter baumannii [9],8 µM
same,MHC,Erythrocyte,> 128 µM
same,MIC,Escherichia coli [10],4 µM
same,viability at 24 h,[11],> 90%
same,MIC,Staphylococcus aureus [7],4 µM
same,MIC,Staphylococcus aureus [12],4 µM
CC(C)[C@H](NC(=O)[C@H](CCCNC(=N)N)NC(=O)[C@H](Cc1c[nH]c2ccccc12)NC(=O)[C@H](CCCNC(=N)N)NC(=O)[C@@H](NC(=O)[C@H](CCCCN)NC(=O)[C@H](Cc1c[nH]c2ccccc12)NC(=O)[C@H](CCCNC(=N)N)NC(=O)[C@@H](NC(=O)[C@H](CCCNC(=N)N)NC(=O)[C@@H](N)Cc1c[nH]c2ccccc12)C(C)C)C(C)C)C(=O)N[C@@H](CCCCN)C(N)=O (H-WRVRWKVRWRVK-NH2),MIC,Escherichia coli [1],4 µM
same,MIC,Pseudomonas aeruginosa,4 µM
same,selectivity ratio,[2],128
same,MIC,Acinetobacter baumannii [8],4 µM
same,MIC,Staphylococcus aureus [3],1 µM
same,MIC,Salmonella typhimurium,2 µM
same,MIC,[4],2 µM
same,MIC,Escherichia coli [5],2 µM
same,MIC,Acinetobacter baumannii [9],2 µM
same,MHC,Erythrocyte,> 128 µM
same,MIC,Escherichia coli [10],1 µM
same,viability at 24 h,[11],> 90%
same,MIC,Staphylococcus aureus [7],2 µM
same,MIC,Staphylococcus aureus [12],2 µM
CC(C)[C@H](NC(=O)[C@H](CCCNC(=N)N)NC(=O)[C@H](Cc1c[nH]c2ccccc12)NC(=O)[C@H](CCCNC(=N)N)NC(=O)[C@@H](NC(=O)[C@H](CCCNC(=N)N)NC(=O)[C@H](Cc1c[nH]c2ccccc12)NC(=O)[C@H](CCCNC(=N)N)NC(=O)[C@@H](NC(=O)[C@H](CCCNC(=N)N)NC(=O)[C@@H](N)Cc1c[nH]c2ccccc12)C(C)C)C(C)C)C(=O)N[C@@H](CCCNC(=N)N)C(N)=O (H-WRVRWRVRWRVR-NH2),MIC,Escherichia coli [1],4 µM
same,MIC,Pseudomonas aeruginosa,4 µM
same,selectivity ratio,[2],114
same,MIC,Acinetobacter baumannii [8],2 µM
same,MIC,Staphylococcus aureus [3],1 µM
same,MIC,Salmonella typhimurium,4 µM
same,MIC,[4],2 µM
same,MIC,Escherichia coli [5],2 µM
same,MIC,Acinetobacter baumannii [9],2 µM
same,MHC,Erythrocyte,> 128 µM
same,MIC,Escherichia coli [10],2 µM
same,viability at 24 h,[11],> 90%
same,MIC,Staphylococcus aureus [7],2 µM
same,MIC,Staphylococcus aureus [12],1 µM
